Assay: Analgesic activity (Siegmund test, phenyl-p-benzoquinone writhing)
Assay type: in vivo
Details: Mus musculus; oral, mice, 1 hour before i.p. phenyl-p-benzoquinone; writhing counted 5th to 10th minute; read-out: ED50 (dose producing a 50% decrease in the number of writhing movements)
Method: The activity against pain was investigated in mice (20-25 g) according to a protocol derived from the technique described by SIEGMUND (SIEGMUND E.A., R.A., CADMUS & GOLU, J. Pharm. Exp. Ther. 119, […], 1954). The mice, randomized in batches of 12 animals, received the treatment orally (excipient for the controls) 1 hour before the intraperitoneal injection of a 0.02% aqueousalcoholic solution of phenyl-p-benzoquinone (Sigma). The writhing movements are counted between the 5th and 10th minute after injection.
The percentage activity obtained was evaluated for each dose (% decrease in the number of writhing movements in the treated animals relative to the controls). An ED50, the dose producing a 50% activity, was determined for each product.

O=c1[nH]c2ccc(Cc3ccccc3)cc2s1 [Example 1, 6-Benzylbenzothiazolinone]
ED50: ~2 mg/kg

— patent publication US5084469A, “New substituted benzothiazolinones” (Adir et Compagnie, priority 1989, dated 1992)
